Assay results reported in patent US20250152688A1 (priority 2021, published 2025).
“Also recorded” adds a separate entry of the source. Read-outs that look alike come from different tables or passages of the source.

How the values were obtained:
[1] = tested on: peripheral blood mononuclear cells (PBMCs); format: in vivo, human; conditions: for Patients with immune response against the peptide / UV1 mix: 51 evaluable patients vaccinated with UV1 (NSCLC, prostate cancer, malignant melanoma); for Number of patients that recognised this one peptide only / Responding patients / evaluable patients: patients vaccinated with UV1; for Responding patients / evaluable patients: response against the labelled peptide / mix
[2] = tested on: T-cell clones derived from patients that responded to UV1 vaccination; format: cell-based, human; conditions: T-cell clones from UV1 responders tested with overlapping 14-mer peptides
C57BL/6 mice = format: in vivo; conditions: 1 nmol SC 3 times, 1 week intervals, blood 9 days post last administration
[3] = tested on: peripheral blood mononuclear cells (PMBCs); format: cell-based, human
vaccinated individuals = conditions: reported in Bernhardt 2006, Inderberg-Suso 2012, Kyte 2011; cited from earlier work
[4] = tested on: HLA-A2/DR1 transgenic mice; format: in vivo
[5] = Vaccination GV1001 + DC (n = 4 + 3)

## AERLTSRVKALFSVL [p728]
[1]
  Patients with immune response against the peptide / UV1 mix: 24%
  Number of patients that recognised this one peptide only: one
  Responding patients / evaluable patients: (12/51)

## ALFSVLNYERARRP (listed as Homo sapiens) [SEQ ID NO: 12]
[2]
  HLA Class II allele, T-cell clone recognising the peptide: DR12, clone 44, 38, 6

## ARRPGLLGASVLGL (listed as Homo sapiens) [SEQ ID NO: 22]
[2]
  HLA Class II allele, T-cell clone recognising the peptide: DQ7, clone 8,10

## ARWWWMHHNMDLIGGAKxVAAWTLKAu [HY-PADRE]
C57BL/6 mice
  Anti-MTTE IgG1 antibody titres (ELISA): no antibodies to the MTTE sequence

## EAEVRQHREARPALL [Conjugate 713]
[3]
  No. of positive patients: 4
[3]; Vaccination DC (n = 3)
  T-cell responses to the individual peptide (patients), counted for SEQ ID NO: 116: 1
[3]; Vaccination GV1001 (n = 4)
  T-cell responses to the individual peptide (patients), counted for SEQ ID NO: 116: 3
[3]; [5]
  T-cell responses to the individual peptide (patients), counted for SEQ ID NO: 116: 4

## EARPALLTSRLRFIPK [GV1001, reference compound]
Vaccinated individuals
  Vaccinated individuals with induced immune responses: at least 50%
[3]; Vaccination DC (n = 3)
  SUM of T-cell responses to peptides embedded in the polypeptide: 5
[3]; Vaccination GV1001 (n = 4)
  SUM of T-cell responses to peptides embedded in the polypeptide: 7
[3]; [5]
  SUM of T-cell responses to peptides embedded in the polypeptide: 12
[4]; 16.4 nmol peptide with standard adjuvant
  Immunogenicity in HLA-A2/DR1 transgenic mice (conclusion): marginal immune responses
[4]; 16.4 nmol peptide, female HLA-A2/DR1 mice (n=4), cut off = cells alone
  Peptides above the threshold (T cell responses against individual peptides): UV 57
[4]; 16.4 nmol, mice M9-M12 GV1001 group, M13-M16 UV34 group
  Peptide recognition by individual vaccinated mice (ELISpot): M9 and 12 did not respond to any of the tested peptides; also recorded: M11 demonstrated a marginal immune response against UV57

## ELYFVKVDVEGAYDT [Conjugate 726]
[3]
  No. of positive patients: 2
[3]; Vaccination DC (n = 3)
  T-cell responses to the individual peptide (patients), counted for SEQ ID NO: 118: 1
[3]; Vaccination GV1001 (n = 4)
  T-cell responses to the individual peptide (patients), counted for SEQ ID NO: 118: 1
[3]; [5]
  T-cell responses to the individual peptide (patients), counted for SEQ ID NO: 118: 2

## ERARRPGLLGASVL (listed as Homo sapiens) [SEQ ID NO: 20]
[2]
  HLA Class II allele, T-cell clone recognising the peptide: DQ7, clone 8,10

## FIPKPDGLRPIVNMD [Conjugate 715]
[3]
  No. of positive patients: 3
[3]; Vaccination DC (n = 3)
  T-cell responses to the individual peptide (patients), counted for SEQ ID NO: 116: 2
[3]; Vaccination GV1001 (n = 4)
  T-cell responses to the individual peptide (patients), counted for SEQ ID NO: 116: 1
[3]; [5]
  T-cell responses to the individual peptide (patients), counted for SEQ ID NO: 116: 3

## FSVLNYERARRPGL (listed as Homo sapiens) [SEQ ID NO: 14]
[2]
  HLA Class II allele, T-cell clone recognising the peptide: p5-clone 109

## GLLGASVLGLDDIH (listed as Homo sapiens) [SEQ ID NO: 26]
[2]
  HLA Class II allele, T-cell clone recognising the peptide: DQ2, clone 52

## LESVLNYERARRPG (LFSVLNYERARRPG; listed as Homo sapiens) [SEQ ID NO: 13]
[2]
  HLA Class II allele, T-cell clone recognising the peptide: p5-clone109

## LKRVQLRELSEAEVRQ [Conjugate 731]
[3]
  No. of positive patients: 1
[3]; Vaccination GV1001 (n = 4)
  T-cell responses to the individual peptide (patients), counted for SEQ ID NO: 116: 1
[3]; [5]
  T-cell responses to the individual peptide (patients), counted for SEQ ID NO: 116: 1

## LLGASVLGLDDIHR (listed as Homo sapiens) [SEQ ID NO: 27]
[2]
  HLA Class II allele, T-cell clone recognising the peptide: DQ2, clone 52

## LNYERARRPGLLGD (LNYERARRPGLLGA; listed as Homo sapiens) [SEQ ID NO: 17]
[2]
  HLA Class II allele, T-cell clone recognising the peptide: p5-clone109

## LYFVKVDVTGAYDTI [Conjugate 727]
[3]
  No. of positive patients: 5
[3]; Vaccination DC (n = 3)
  T-cell responses to the individual peptide (patients), counted for SEQ ID NO: 118: 2
[3]; Vaccination GV1001 (n = 4)
  T-cell responses to the individual peptide (patients), counted for SEQ ID NO: 118: 3
[3]; [5]
  T-cell responses to the individual peptide (patients), counted for SEQ ID NO: 118: 5

## LYFVKVDVTGAYDTIPQDRLTRVIASIIKP (listed as Homo sapiens) [SEQ ID NO: 118]
[3]; GV1001 (n=4) + DC (n=3) vaccinated patients
  Total of positive patients over peptides sharing at least 8 amino acids with the polypeptide: Total = 9
[3]; Vaccination DC (n = 3)
  SUM of T-cell responses to peptides embedded in the polypeptide: 4
[3]; Vaccination GV1001 (n = 4)
  SUM of T-cell responses to peptides embedded in the polypeptide: 5
[3]; [5]
  SUM of T-cell responses to peptides embedded in the polypeptide: 9

## NYERARRPGLLGAS (listed as Homo sapiens) [SEQ ID NO: 18]
[2]
  HLA Class II allele, T-cell clone recognising the peptide: p5-clone 109; also recorded: DQ7, clone 8

## PGLLGASVLGLDDI (listed as Homo sapiens) [SEQ ID NO: 25]
[2]
  HLA Class II allele, T-cell clone recognising the peptide: DQ2, clone 52

## PQDRLTEVIASIIKP [Conjugate 723]
[3]
  No. of positive patients: 1
[3]; Vaccination DC (n = 3)
  T-cell responses to the individual peptide (patients), counted for SEQ ID NO: 118: 1
[3]; [5]
  T-cell responses to the individual peptide (patients), counted for SEQ ID NO: 118: 1

## RARRPGLLGASVLG (listed as Homo sapiens) [SEQ ID NO: 21]
[2]
  HLA Class II allele, T-cell clone recognising the peptide: DQ7, clone 8,10

## RPALLTSRLRFIPKP [Conjugate 714]
[3]
  No. of positive patients: 7
[3]; Vaccination DC (n = 3)
  T-cell responses to the individual peptide (patients), counted for GV1001: 3
  T-cell responses to the individual peptide (patients), counted for SEQ ID NO: 116: 3
[3]; Vaccination GV1001 (n = 4)
  T-cell responses to the individual peptide (patients), counted for GV1001: 4
  T-cell responses to the individual peptide (patients), counted for SEQ ID NO: 116: 4
[3]; [5]
  T-cell responses to the individual peptide (patients), counted for GV1001: 7
  T-cell responses to the individual peptide (patients), counted for SEQ ID NO: 116: 7

## RRPGLLGASVLGLD (listed as Homo sapiens) [SEQ ID NO: 23]
[2]
  HLA Class II allele, T-cell clone recognising the peptide: DQ7, clone 8,10

## RTFVLRVRAQDPPPE [p725]
[1]
  Patients with immune response against the peptide / UV1 mix: 39%
  Number of patients that recognised this one peptide only: one
  Responding patients / evaluable patients: (20/51)

## SVLNYERARRPGLL (listed as Homo sapiens) [SEQ ID NO: 15]
[2]
  HLA Class II allele, T-cell clone recognising the peptide: DR7, clone 4, 12, 21, 15, 92,; also recorded: p5-clone109

## TSRLRFIPKPDGLRP [Conjugate 730]
[3]
  No. of positive patients: 5
[3]; Vaccination DC (n = 3)
  T-cell responses to the individual peptide (patients), counted for GV1001: 2
  T-cell responses to the individual peptide (patients), counted for SEQ ID NO: 116: 2
[3]; Vaccination GV1001 (n = 4)
  T-cell responses to the individual peptide (patients), counted for GV1001: 3
  T-cell responses to the individual peptide (patients), counted for SEQ ID NO: 116: 3
[3]; [5]
  T-cell responses to the individual peptide (patients), counted for GV1001: 5
  T-cell responses to the individual peptide (patients), counted for SEQ ID NO: 116: 5

## VLNYERARRPGLIG (VLNYERARRPGLLG; listed as Homo sapiens) [SEQ ID NO: 16]
[2]
  HLA Class II allele, T-cell clone recognising the peptide: DR7, clone 15, p5-clone109

## VTGAYDTIPQDRLTE [Conjugate 732]
[3]
  No. of positive patients: 1
[3]; Vaccination GV1001 (n = 4)
  T-cell responses to the individual peptide (patients), counted for SEQ ID NO: 118: 1
[3]; [5]
  T-cell responses to the individual peptide (patients), counted for SEQ ID NO: 118: 1

## YERARRPGLLGASV (listed as Homo sapiens) [SEQ ID NO: 19]
[2]
  HLA Class II allele, T-cell clone recognising the peptide: DQ7, clone 8
